Reference: patent publication US20250352525A1, “COMPOSITIONS AND METHODS OF TREATING TRAUMATIC BRAIN INJURY” (United States Government As Represented By The Department …, priority 2024, published 2025)

Columns and labels:
hsSTING = hsSTING (Homo sapiens, UniProt Q86WV6); settings: covalent small-molecule inhibitor; cited from earlier work
mmSTING = target: T1, mmSTING (Mus musculus, UniProt Q3TBT3); settings: covalent small-molecule inhibitor; cited from earlier work
T1 sequence (Q3TBT3 1-378): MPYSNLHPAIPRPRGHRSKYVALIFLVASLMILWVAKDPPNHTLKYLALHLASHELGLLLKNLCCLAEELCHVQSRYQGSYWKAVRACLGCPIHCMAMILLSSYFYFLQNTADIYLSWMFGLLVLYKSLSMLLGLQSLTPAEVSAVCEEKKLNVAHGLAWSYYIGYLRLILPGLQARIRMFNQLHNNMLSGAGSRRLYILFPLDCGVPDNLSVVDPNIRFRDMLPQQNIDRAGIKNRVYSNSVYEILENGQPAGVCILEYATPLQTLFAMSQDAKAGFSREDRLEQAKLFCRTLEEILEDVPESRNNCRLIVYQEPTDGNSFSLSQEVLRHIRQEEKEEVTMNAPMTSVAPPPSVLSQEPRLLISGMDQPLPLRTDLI

IBA1 [1] = experiment: Immunocytochemistry of IBA1 in poly (I:C)-stimulated BV2 microglial cells, integrated density (ImageJ); format: cell-based; settings: pre-treated 2 h, then poly (I:C) 6 h, normalized to blank
Method: (§1) Experimental design: IMG or BV2 cells were plated in a 96-well or 6-well plate and allowed to adhere overnight. Plates were dosed with clonixeril for 2 hours and then LPS or polyinosinic-polycytidylic acid (polyIC) for 24 hours to induce inflammation. Ionized calcium-binding adaptor molecule 1 (IBA1) and pSTING expression were imaged and immunohistochemistry was measured (ImageJ).
Controls used are a blank (untreated); and 25 ng/ml poly (I:C) treatment for 6 h. Immunocytochemistry of BV2 cells pre-treated with a known STING inhibitor H151, clonixeril or a ketone analogue of clonixin (e.g., clonixin butyl ketone) for 2 h and then treated with poly (I:C) for 6 h, stained with IBA1 antibody (red) and DAPI (blue) to visualize nuclei. […] Separate channels were quantified by ImageJ for IBA1 (red) and DAPI (blue) pixel density. A ratio of red signal to blue signal was calculated for each image. Ratios were averaged for each experimental group and normalized to the blank (control) group.

IL-6 = experiment: qPCR for IL-6 in PolyIC-stimulated BV2 cells; format: cell-based; settings: dosed 2 hours, then PolyIC 24 hours
Method: (§2) Experimental design: BV2 cells were plated in a 6-well plate and allowed to adhere overnight. Plates were dosed with clonixin butyl ketone or H151 for 2 hours and then PolyIC for 24 hours to induce inflammation. qPCR was performed to measure expression of CCL20 and IL-6 inflammatory genes and immunomodulatory Irf-3 gene.

CCL20 = experiment: qPCR for CCL20 in PolyIC-stimulated BV2 cells; format: cell-based; settings: dosed 2 hours, then PolyIC 24 hours
Method: as §2

pSTING [2] = experiment: Immunocytochemistry of pSTING in poly (I:C)-stimulated HT22 hippocampal cells, integrated density (ImageJ); format: cell-based, mouse; settings: pre-treated 2 h, then poly (I:C) 6 h, normalized to blank
Method: Cells were untreated, or pre-treated with vehicle or STING-inhibitory compounds H151, a ketone analog of clonixin (e.g., clonixin butyl ketone), clonixeril (CXL) for 2 h and then treated with poly (I:C) for 6 h. Cells were then stained with DAPI (blue, top row) to visualize nuclei and pSTING antibody (red, bottom 5 row). Images are presented separately for enhanced clarity. Scale bar 100 μm.
Error bars represent mean ±standard deviation (SD). Separate channels were quantified by ImageJ for pSTING (red) and DAPI (blue) pixel density. A ratio of red signal to blue signal was calculated for each image. Ratios were averaged for each experimental group and normalized to the blank (control) group.

Irf-3 = experiment: qPCR for Irf-3 in PolyIC-stimulated BV2 cells; format: cell-based; settings: dosed 2 hours, then PolyIC 24 hours
Method: as §2

[3] = system: phosphorylated STING (pSTING); experiment: Western blot for pSTING in poly (I:C)-stimulated HT22 hippocampal cells; format: cell-based, mouse; settings: 100 pM pre-treatment 2 h, then poly (I:C) 6 h
Method: Immunoblot analysis of phosphorylated STING (pSTING) and β-actin in HT22 mouse hippocampal cells. Cells were pre-treated with 100 pM ketone analog of clonixin (e.g., clonixin butyl ketone) for 2 h, followed by 6 h stimulation with poly (I:C). Cell lysates were harvested at indicated time points using RIPA buffer supplemented with 1× Halt Protease and Phosphatase Inhibitor Cocktail, quantified via Bradford assay, and normalized to 20 μg protein per well. Lysates were resolved by SDS-PAGE and probed with rabbit polyclonal anti-pSTING and anti-β-actin antibodies.

pSTING [4] = experiment: Immunocytochemistry of pSTING in LPS-stimulated IMG cells, integrated density (ImageJ); format: cell-based; settings: pre-treated 2 h, then LPS 24 h, normalized to blank
Method: as §1
(§3) Cells were untreated, or pre-treated with vehicle or STING-inhibitory compound clonixeril for 2 h and then treated with LPS for 24 h. Cells were then stained with DAPI (blue) to visualize nuclei, IBA1 or pSTING antibody (red). Images are presented separately for enhanced clarity. […] Error bars represent mean ±standard deviation (SD). Separate channels were quantified by ImageJ for IBA1 or pSTING (red) and DAPI (blue) pixel density. A ratio of red signal to blue signal was calculated for each image. Ratios were averaged for each experimental group and normalized to the blank (control) group.

IBA1 [5] = experiment: Immunocytochemistry of IBA1 in LPS-stimulated IMG cells, integrated density (ImageJ); format: cell-based; settings: pre-treated 2 h, then LPS 24 h, normalized to blank
Method: as §1, §3

Chain of hsSTING (Q86WV6 whole entry H232R): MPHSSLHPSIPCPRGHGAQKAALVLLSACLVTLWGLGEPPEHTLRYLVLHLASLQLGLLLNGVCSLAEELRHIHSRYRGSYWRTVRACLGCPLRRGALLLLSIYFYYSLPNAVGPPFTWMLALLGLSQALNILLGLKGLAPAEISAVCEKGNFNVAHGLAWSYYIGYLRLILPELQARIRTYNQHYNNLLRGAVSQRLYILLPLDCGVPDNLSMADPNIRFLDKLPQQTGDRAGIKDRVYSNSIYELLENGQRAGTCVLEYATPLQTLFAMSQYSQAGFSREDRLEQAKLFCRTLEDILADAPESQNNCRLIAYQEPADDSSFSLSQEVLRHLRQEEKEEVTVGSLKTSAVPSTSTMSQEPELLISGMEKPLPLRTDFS

Compound	inhibition of hsSTING (hsSTING)	inhibition of mmSTING (mmSTING)	IBA1 integrated density (IBA1 [1])	expression of IL-6 (qPCR) (IL-6)	CCL20 expression at 1 picomolar concentration (CCL20)	expression of CCL20 (qPCR) (CCL20)	pSTING (immunocytochemistry, integrated density) (pSTING [2])	expression of interferon regulatory gene Irf3 (qPCR) (Irf-3)	IL-6 expression at 1 picomolar concentration (IL-6; 1 picomolar)	poly (I:C)-induced STING phosphorylation (Western blot, normalized to β-actin) [3]	pSTING integrated density (pSTING [4])	IBA1 integrated density (IBA1 [5])
CCCCCCc1ccc(NC(=O)c2ccc([N+](=O)[O-])o2)cc1 [C-171, N-(4-hexylphenyl)-5-nitro-2-furancarboxamide]	efficiently inhibits	efficiently inhibits	–	–	–	–	–	–	–	–	–	–
CCc1ccc(NC(=O)Nc2c[nH]c3ccccc23)cc1 [H151]	–	–	reduction	significantly decreased	but not H151 showed a significant reduction	significantly decreased	reduction	reduced significantly	–	–	–	–
CCCCC(=O)c1cccnc1Nc1cccc(Cl)c1C [clonixin butyl ketone, {2-[(3-chloro-2-methylphenyl)amino]pyridin-3-yl}-1-pentanone]	–	–	reduction	significantly decreased	significant reduction	significantly decreased	reduction	reduced significantly	significant reduction	inhibition	–	–
clonixeril	–	–	reduction	–	–	–	reduction	–	–	–	reduction	reduction
